The NIST ThermoML archive (doi:10.1021/je200811n)

Details: Hot wire method

C=C(F)C(F)(F)F [2,3,3,3-tetrafluoro-1-propene]
Details | thermal conductivity [W/m/K]
332.05 K, 300 kPa, Gas | 0.01662
332.05 K, 1511 kPa, Gas | 0.01807
332.06 K, 821 kPa, Gas | 0.01681
332.12 K, 1388 kPa, Gas | 0.01774
332.13 K, 627 kPa, Gas | 0.01673
332.19 K, 1235 kPa, Gas | 0.01737
332.21 K, 465 kPa, Gas | 0.01667
332.27 K, 1074 kPa, Gas | 0.01714
332.3 K, 974 kPa, Gas | 0.01699
332.31 K, 299 kPa, Gas | 0.01673
332.33 K, 1511 kPa, Gas | 0.01806
332.36 K, 820 kPa, Gas | 0.01686
332.38 K, 202 kPa, Gas | 0.0168
332.41 K, 1386 kPa, Gas | 0.01772
332.46 K, 626 kPa, Gas | 0.01677
332.48 K, 1233 kPa, Gas | 0.01739
332.55 K, 102 kPa, Gas | 0.01703
332.56 K, 463 kPa, Gas | 0.01674
332.58 K, 1073 kPa, Gas | 0.01716
332.62 K, 973 kPa, Gas | 0.01704
332.62 K, 1511 kPa, Gas | 0.01806
332.67 K, 299 kPa, Gas | 0.01675
332.69 K, 819 kPa, Gas | 0.0169
332.71 K, 1385 kPa, Gas | 0.0177
332.75 K, 202 kPa, Gas | 0.01687
332.81 K, 626 kPa, Gas | 0.01677
332.81 K, 1233 kPa, Gas | 0.01741
332.91 K, 1072 kPa, Gas | 0.01718
332.91 K, 1511 kPa, Gas | 0.01803
332.92 K, 461 kPa, Gas | 0.01677
332.95 K, 101 kPa, Gas | 0.01705
332.96 K, 972 kPa, Gas | 0.01706
333.04 K, 299 kPa, Gas | 0.01681
333.04 K, 1384 kPa, Gas | 0.0177
333.05 K, 818 kPa, Gas | 0.01692
333.14 K, 1232 kPa, Gas | 0.01741
333.15 K, 202 kPa, Gas | 0.01686
333.18 K, 625 kPa, Gas | 0.01682
333.26 K, 1071 kPa, Gas | 0.0172
333.3 K, 460 kPa, Gas | 0.01681
333.31 K, 972 kPa, Gas | 0.01708
333.38 K, 101 kPa, Gas | 0.01705
333.41 K, 817 kPa, Gas | 0.01696
333.45 K, 300 kPa, Gas | 0.01686
333.56 K, 624 kPa, Gas | 0.01687
333.57 K, 202 kPa, Gas | 0.01692
333.69 K, 460 kPa, Gas | 0.01685
333.83 K, 102 kPa, Gas | 0.0171
333.87 K, 300 kPa, Gas | 0.01688
334.02 K, 202 kPa, Gas | 0.01695
334.31 K, 102 kPa, Gas | 0.01716
341.28 K, 102 kPa, Gas | 0.01759
341.35 K, 201 kPa, Gas | 0.01779
341.39 K, 303 kPa, Gas | 0.01795
341.45 K, 17165 kPa, Liquid | 0.0645
341.49 K, 102 kPa, Gas | 0.01745
341.52 K, 12122 kPa, Liquid | 0.06134
341.52 K, 21726 kPa, Liquid | 0.06742
341.55 K, 17165 kPa, Liquid | 0.06461
341.56 K, 200 kPa, Gas | 0.01761
341.6 K, 303 kPa, Gas | 0.01775
341.6 K, 8202 kPa, Liquid | 0.05839
341.61 K, 21724 kPa, Liquid | 0.06756
341.62 K, 12120 kPa, Liquid | 0.06114
341.69 K, 5189 kPa, Liquid | 0.05547
341.7 K, 8198 kPa, Liquid | 0.05823
341.73 K, 103 kPa, Gas | 0.01734
341.77 K, 2101 kPa, Liquid | 0.05131
341.79 K, 200 kPa, Gas | 0.0175
341.8 K, 5187 kPa, Liquid | 0.05524
341.8 K, 17162 kPa, Liquid | 0.0647
341.82 K, 302 kPa, Gas | 0.01766
341.85 K, 21720 kPa, Liquid | 0.06741
341.88 K, 12117 kPa, Liquid | 0.06141
341.89 K, 2100 kPa, Liquid | 0.05083
341.92 K, 17160 kPa, Liquid | 0.06488
341.96 K, 103 kPa, Gas | 0.01726
341.96 K, 21718 kPa, Liquid | 0.06759
341.98 K, 8198 kPa, Liquid | 0.05827
342.01 K, 12114 kPa, Liquid | 0.06141
342.02 K, 199 kPa, Gas | 0.01743
342.03 K, 1842 kPa, Gas | 0.01945
342.03 K, 1904 kPa, Gas | 0.01996
342.04 K, 1737 kPa, Gas | 0.0191
342.05 K, 302 kPa, Gas | 0.01758
342.07 K, 1574 kPa, Gas | 0.01854
342.08 K, 5185 kPa, Liquid | 0.0553
342.11 K, 8197 kPa, Liquid | 0.05815
342.16 K, 1405 kPa, Gas | 0.01818
342.17 K, 951 kPa, Gas | 0.01775
342.18 K, 17158 kPa, Liquid | 0.06504
342.19 K, 814 kPa, Gas | 0.0177
342.19 K, 2098 kPa, Liquid | 0.05099
342.21 K, 103 kPa, Gas | 0.01718
342.22 K, 5183 kPa, Liquid | 0.05512
342.22 K, 21716 kPa, Liquid | 0.0677
342.26 K, 605 kPa, Gas | 0.01764
342.27 K, 199 kPa, Gas | 0.01735
342.27 K, 1842 kPa, Gas | 0.01963
342.27 K, 1904 kPa, Gas | 0.01971
342.28 K, 12111 kPa, Liquid | 0.06144
342.29 K, 302 kPa, Gas | 0.0175
342.29 K, 1736 kPa, Gas | 0.01924
342.29 K, 1903 kPa, Gas | 0.01966
342.32 K, 459 kPa, Gas | 0.01763
342.32 K, 17157 kPa, Liquid | 0.06503
342.34 K, 1573 kPa, Gas | 0.01875
342.34 K, 2096 kPa, Liquid | 0.05065
342.36 K, 21715 kPa, Liquid | 0.06785
342.4 K, 8195 kPa, Liquid | 0.05822
342.43 K, 1404 kPa, Gas | 0.01834
342.44 K, 12112 kPa, Liquid | 0.06137
342.47 K, 949 kPa, Gas | 0.01781
342.47 K, 1242 kPa, Gas | 0.01809
342.5 K, 813 kPa, Gas | 0.01767
342.5 K, 1096 kPa, Gas | 0.01796
342.51 K, 1904 kPa, Gas | 0.01989
342.52 K, 1841 kPa, Gas | 0.01962
342.52 K, 1904 kPa, Gas | 0.01982
342.52 K, 5181 kPa, Liquid | 0.05511
342.54 K, 939 kPa, Gas | 0.01779
342.55 K, 1735 kPa, Gas | 0.01923
342.56 K, 303 kPa, Gas | 0.01766
342.56 K, 8193 kPa, Liquid | 0.05802
342.6 K, 17155 kPa, Liquid | 0.06501
342.61 K, 1572 kPa, Gas | 0.01878
342.63 K, 201 kPa, Gas | 0.01782
342.63 K, 21712 kPa, Liquid | 0.06777
342.66 K, 458 kPa, Gas | 0.01768
342.66 K, 2094 kPa, Liquid | 0.05079
342.69 K, 5181 kPa, Liquid | 0.05482
342.72 K, 1403 kPa, Gas | 0.01842
342.73 K, 12110 kPa, Liquid | 0.06135
342.75 K, 102 kPa, Gas | 0.01803
342.77 K, 1903 kPa, Gas | 0.01985
342.77 K, 17154 kPa, Liquid | 0.06488
342.78 K, 1241 kPa, Gas | 0.01818
342.78 K, 1841 kPa, Gas | 0.01962
342.79 K, 948 kPa, Gas | 0.01785
342.79 K, 1904 kPa, Gas | 0.01984
342.79 K, 21708 kPa, Liquid | 0.06775
342.82 K, 1095 kPa, Gas | 0.01798
342.83 K, 812 kPa, Gas | 0.01775
342.83 K, 1734 kPa, Gas | 0.01925
342.86 K, 939 kPa, Gas | 0.01784
342.86 K, 8191 kPa, Liquid | 0.05808
342.89 K, 1571 kPa, Gas | 0.01877
342.9 K, 12107 kPa, Liquid | 0.06122
342.91 K, 302 kPa, Gas | 0.01773
343.01 K, 201 kPa, Gas | 0.01784
343.01 K, 5178 kPa, Liquid | 0.05499
343.02 K, 458 kPa, Gas | 0.0177
343.03 K, 1402 kPa, Gas | 0.01843
343.03 K, 1903 kPa, Gas | 0.01984
343.05 K, 8190 kPa, Liquid | 0.05781
343.05 K, 17151 kPa, Liquid | 0.06493
343.06 K, 1840 kPa, Gas | 0.01962
343.06 K, 1904 kPa, Gas | 0.01984
343.06 K, 21708 kPa, Liquid | 0.06763
343.1 K, 1240 kPa, Gas | 0.01819
343.12 K, 946 kPa, Gas | 0.01784
343.12 K, 1733 kPa, Gas | 0.0192
343.14 K, 1094 kPa, Gas | 0.01802
343.15 K, 102 kPa, Gas | 0.01805
343.17 K, 2093 kPa, Liquid | 0.05051
343.19 K, 810 kPa, Gas | 0.0178
343.2 K, 938 kPa, Gas | 0.0179
343.2 K, 12105 kPa, Liquid | 0.06126
343.21 K, 1570 kPa, Gas | 0.01879
343.21 K, 5176 kPa, Liquid | 0.05461
343.25 K, 17149 kPa, Liquid | 0.06474
343.25 K, 21706 kPa, Liquid | 0.06757
343.29 K, 302 kPa, Gas | 0.01776
343.29 K, 606 kPa, Gas | 0.01775
343.35 K, 1401 kPa, Gas | 0.01847
343.36 K, 8188 kPa, Liquid | 0.05795
343.39 K, 2092 kPa, Liquid | 0.05007
343.4 K, 200 kPa, Gas | 0.01785
343.41 K, 459 kPa, Gas | 0.01776
343.41 K, 12104 kPa, Liquid | 0.06108
343.43 K, 1239 kPa, Gas | 0.01822
343.48 K, 945 kPa, Gas | 0.01791
343.49 K, 1093 kPa, Gas | 0.01807
343.53 K, 5176 kPa, Liquid | 0.05477
343.55 K, 809 kPa, Gas | 0.01783
343.55 K, 937 kPa, Gas | 0.01797
343.56 K, 102 kPa, Gas | 0.01807
343.58 K, 8186 kPa, Liquid | 0.0576
343.68 K, 606 kPa, Gas | 0.0178
343.69 K, 302 kPa, Gas | 0.01781
343.72 K, 2091 kPa, Liquid | 0.05023
343.77 K, 5174 kPa, Liquid | 0.05432
343.8 K, 200 kPa, Gas | 0.0179
343.8 K, 459 kPa, Gas | 0.0178
343.99 K, 2090 kPa, Liquid | 0.05015
344 K, 103 kPa, Gas | 0.01811
344.09 K, 302 kPa, Gas | 0.01783
344.23 K, 199 kPa, Gas | 0.01797
344.46 K, 103 kPa, Gas | 0.01816

Liquid
Details | thermal conductivity [W/m/K]
333.15 K | 0.05329
343.15 K | 0.05091
